Measurements reported in PubChem BioAssay AID1745844 (Carcinogenic Potency Database (CPDB), 2022).
“And” between values parts separate entries of the source, which are not always exact repeats. Equal values may be shown once. The source made the active and inactive calls. No rule for the calls is given here.

System: rodent lifetime carcinogenesis bioassay, tumor incidence TD50
Test: chronic cancer bioassays in animals – CPDB, compiled studies (AID 1745844)
[1] = mouse, strain B6AKF1, females, oral dosing, site: lung, lesion: adenoma, dosed 76 weeks, study length 76 weeks

CCCCOCCOCCOCc1cc2c(cc1CCC)OCO2
carcinogen call (mouse, strain B6AKF1, females, oral dosing, site: liver, lesion: hepatoma, dosed 76 weeks, study length 76 weeks): negative (inactive) | TD50 [1]: 265 mg/kg/day | carcinogen call [1]: negative (inactive) | carcinogen call (mouse, strain B6AKF1, males, oral dosing, site: any site (literature study), lesion: several types, types named in the paper, dosed 76 weeks, study length 76 weeks): negative (inactive) | carcinogen call (mouse, strain B6AKF1, males, oral dosing, site: liver, lesion: hepatoma, dosed 76 weeks, study length 76 weeks): negative (inactive) | carcinogen call (mouse, strain B6AKF1, males, oral dosing, site: lung, lesion: adenoma, dosed 76 weeks, study length 76 weeks): negative (inactive) | carcinogen call (mouse, strain B6C3F1, females, in feed, site: any site (literature study), lesion: several types, types named in the paper, dosed 112 weeks, study length 112 weeks): negative (inactive) | TD50 (mouse, strain B6C3F1, females, in feed, site: liver, lesion: hepatocellular adenoma + hepatocellular carcinoma + neoplastic nodule, dosed 112 weeks, study length 112 weeks): 3260 mg/kg/day | carcinogen call (mouse, strain B6C3F1, females, oral dosing, site: any site (literature study), lesion: one or several types, types not named, dosed 76 weeks, study length 76 weeks): negative (inactive) | TD50 (mouse, strain B6C3F1, females, oral dosing, site: any site (literature study), lesion: several types, types named in the paper, dosed 76 weeks, study length 76 weeks): 83.1 mg/kg/day | carcinogen call (mouse, strain B6C3F1, females, oral dosing, site: liver, lesion: hepatoma, dosed 76 weeks, study length 76 weeks): negative (inactive) | carcinogen call (mouse, strain B6C3F1, females, oral dosing, site: lung, lesion: several types, types named in the paper, dosed 76 weeks, study length 76 weeks): negative (inactive) | carcinogen call (mouse, strain B6C3F1, males, in feed, site: any site (literature study), lesion: several types, types named in the paper, dosed 112 weeks, study length 112 weeks): negative (inactive) | TD50 (mouse, strain B6C3F1, males, oral dosing, site: all sites, lesion: reticulum-cell sarcoma, dosed 76 weeks, study length 76 weeks): 34.8 mg/kg/day | TD50 (mouse, strain B6C3F1, males, oral dosing, site: liver, lesion: hepatoma, dosed 76 weeks, study length 76 weeks): 186 mg/kg/day (inactive) and 98.5 mg/kg/day | carcinogen call (mouse, strain B6C3F1, males, oral dosing, site: lung, lesion: several types, types named in the paper, dosed 76 weeks, study length 76 weeks): negative (inactive) | TD50 (mouse, strain Charles River CD1, females, in feed, site: liver, lesion: basophil adenoma, dosed 79 weeks, study length 79 weeks): 4540 mg/kg/day | TD50 (mouse, strain Charles River CD1, females, in feed, site: liver, lesion: eosinophilic adenoma, dosed 79 weeks, study length 79 weeks): 1120 mg/kg/day | TD50 (mouse, strain Charles River CD1, females, in feed, site: liver, lesion: hepatocellular adenoma, dosed 52 weeks, study length 52 weeks): 2380 mg/kg/day | TD50 (mouse, strain Charles River CD1, females, in feed, site: liver, lesion: hepatocellular adenoma, dosed 79 weeks, study length 79 weeks): 825 mg/kg/day | TD50 (mouse, strain Charles River CD1, females, in feed, site: liver, lesion: hepatocellular carcinoma, dosed 52 weeks, study length 52 weeks): 756 mg/kg/day | TD50 (mouse, strain Charles River CD1, females, in feed, site: liver, lesion: several types, types named in the paper, dosed 52 weeks, study length 52 weeks): 516 mg/kg/day | TD50 (mouse, strain Charles River CD1, males, in feed, site: liver, lesion: basophil adenoma, dosed 79 weeks, study length 79 weeks): 844 mg/kg/day | TD50 (mouse, strain Charles River CD1, males, in feed, site: liver, lesion: eosinophilic adenoma, dosed 79 weeks, study length 79 weeks): 355 mg/kg/day | TD50 (mouse, strain Charles River CD1, males, in feed, site: liver, lesion: hepatocellular adenoma, dosed 52 weeks, study length 52 weeks): 1060 mg/kg/day | TD50 (mouse, strain Charles River CD1, males, in feed, site: liver, lesion: hepatocellular adenoma, dosed 79 weeks, study length 79 weeks): 160 mg/kg/day | TD50 (mouse, strain Charles River CD1, males, in feed, site: liver, lesion: hepatocellular carcinoma, dosed 52 weeks, study length 52 weeks): 410 mg/kg/day | TD50 (mouse, strain Charles River CD1, males, in feed, site: liver, lesion: hepatocellular carcinoma, dosed 79 weeks, study length 79 weeks): 3470 mg/kg/day | TD50 (mouse, strain Charles River CD1, males, in feed, site: liver, lesion: mixed cell adenoma, dosed 79 weeks, study length 79 weeks): 2630 mg/kg/day | TD50 (mouse, strain Charles River CD1, males, in feed, site: liver, lesion: several types, types named in the paper, dosed 52 weeks, study length 52 weeks): 229 mg/kg/day | TD50 (rat, strain Charles River CD (Sprague-Dawley), females, in feed, site: liver, lesion: hepatocellular carcinoma, dosed 104 weeks, study length 104 weeks): 12800 mg/kg/day (inactive) | TD50 (rat, strain Charles River CD (Sprague-Dawley), males, in feed, site: liver, lesion: hepatocellular adenoma, dosed 104 weeks, study length 104 weeks): 12800 mg/kg/day (inactive) | TD50 (rat, strain Charles River CD (Sprague-Dawley), males, in feed, site: liver, lesion: hepatocellular carcinoma, dosed 104 weeks, study length 104 weeks): 78500 mg/kg/day (inactive) | carcinogen call (rat, strain F344/DuCrj, females, in feed, site: any site (literature study), lesion: several types, types named in the paper, dosed 104 weeks, study length 110 weeks): negative (inactive) | TD50 (rat, strain F344/DuCrj, females, in feed, site: liver, lesion: cholangioma, cystic, dosed 96 weeks, study length 96 weeks): 19100 mg/kg/day | TD50 (rat, strain F344/DuCrj, females, in feed, site: liver, lesion: hepatocellular adenoma, dosed 96 weeks, study length 96 weeks): 2460 mg/kg/day | TD50 (rat, strain F344/DuCrj, females, in feed, site: liver, lesion: hepatocellular carcinoma, dosed 96 weeks, study length 96 weeks): 2220 mg/kg/day | TD50 (rat, strain F344/DuCrj, females, in feed, site: liver, lesion: hepatocellular tumor, dosed 96 weeks, study length 96 weeks): 977 mg/kg/day | carcinogen call (rat, strain F344/DuCrj, females, in feed, site: liver, lesion: neoplastic nodule, dosed 104 weeks, study length 110 weeks): negative (inactive) | carcinogen call (rat, strain F344/DuCrj, males, in feed, site: any site (literature study), lesion: several types, types named in the paper, dosed 104 weeks, study length 110 weeks): negative (inactive) | TD50 (rat, strain F344/DuCrj, males, in feed, site: liver, lesion: cholangioma, cystic, dosed 95 weeks, study length 95 weeks): 30200 mg/kg/day | TD50 (rat, strain F344/DuCrj, males, in feed, site: liver, lesion: hepatocellular adenoma, dosed 95 weeks, study length 95 weeks): 1400 mg/kg/day | TD50 (rat, strain F344/DuCrj, males, in feed, site: liver, lesion: hepatocellular carcinoma, dosed 95 weeks, study length 95 weeks): 806 mg/kg/day | TD50 (rat, strain F344/DuCrj, males, in feed, site: liver, lesion: hepatocellular carcinoma, dosed 104 weeks, study length 110 weeks): 20100 mg/kg/day (inactive) | TD50 (rat, strain F344/DuCrj, males, in feed, site: liver, lesion: hepatocellular tumor, dosed 95 weeks, study length 95 weeks): 468 mg/kg/day | TD50 (rat, strain F344/DuCrj, males, in feed, site: liver, lesion: neoplastic nodule, dosed 104 weeks, study length 110 weeks): 7690 mg/kg/day (inactive) | TD50 (rat, strain Fischer 344, females, in feed, site: all sites, lesion: lymphoma, dosed 107 weeks, study length 107 weeks): 1180 mg/kg/day (inactive) | TD50 (rat, strain Fischer 344, females, in feed, site: any site (literature study), lesion: several types, types named in the paper, dosed 107 weeks, study length 107 weeks): 7820 mg/kg/day | carcinogen call (rat, strain Fischer 344, males, in feed, site: any site (literature study), lesion: several types, types named in the paper, dosed 107 weeks, study length 107 weeks): negative (inactive) | TD50 (rat, strain Wistar, both sexes, in feed, site: liver, lesion: hepatocellular carcinoma, dosed 95 weeks, study length 104 weeks): 26100 mg/kg/day (inactive) | TD50 (rat, strain Wistar, both sexes, in feed, site: liver, lesion: hepatoma, dosed 95 weeks, study length 104 weeks): 22500 mg/kg/day (inactive)

O=C1OC(c2ccc(O)cc2)(c2ccc(O)cc2)c2ccccc21
TD50 (mouse, strain B6C3F1, females, in feed, site: all sites + ovary, lesion: histiocytic sarcoma + lymphoma malignant, thymic origin + malignant lymphoma + sex-cord stromal tumor, benign, bilateral + sex-c, dosed 105 weeks, study length 105 weeks): 508 mg/kg/day | TD50 (mouse, strain B6C3F1, females, in feed, site: all sites, lesion: histiocytic sarcoma, dosed 105 weeks, study length 105 weeks): 4080 mg/kg/day | TD50 (mouse, strain B6C3F1, females, in feed, site: all sites, lesion: lymphoma malignant, thymic origin, dosed 105 weeks, study length 105 weeks): 1610 mg/kg/day | TD50 (mouse, strain B6C3F1, females, in feed, site: all sites, lesion: malignant lymphoma, dosed 105 weeks, study length 105 weeks): 748 mg/kg/day | TD50 (mouse, strain B6C3F1, females, in feed, site: any site (literature study), lesion: several types, types named in the paper, dosed 105 weeks, study length 105 weeks): 1740 mg/kg/day | TD50 (mouse, strain B6C3F1, females, in feed, site: lung, lesion: alveolar/bronchiolar adenoma + alveolar/bronchiolar carcinoma, dosed 105 weeks, study length 105 weeks): 9190 mg/kg/day | TD50 (mouse, strain B6C3F1, females, in feed, site: ovary, lesion: sex-cord stromal tumor, benign, bilateral + sex-cord stromal tumor, benign, dosed 105 weeks, study length 105 weeks): 1900 mg/kg/day | TD50 (mouse, strain B6C3F1, males, in feed, site: all sites, lesion: histiocytic sarcoma + lymphoma malignant, thymic origin, dosed 104 weeks, study length 104 weeks): 1150 mg/kg/day | TD50 (mouse, strain B6C3F1, males, in feed, site: all sites, lesion: histiocytic sarcoma, dosed 104 weeks, study length 104 weeks): 2680 mg/kg/day | TD50 (mouse, strain B6C3F1, males, in feed, site: all sites, lesion: lymphoma malignant, thymic origin, dosed 104 weeks, study length 104 weeks): 2740 mg/kg/day | TD50 (mouse, strain B6C3F1, males, in feed, site: any site (literature study), lesion: several types, types named in the paper, dosed 104 weeks, study length 104 weeks): 32200 mg/kg/day | TD50 (mouse, strain B6C3F1, males, in feed, site: lung, lesion: alveolar/bronchiolar adenoma + alveolar/bronchiolar carcinoma, dosed 104 weeks, study length 104 weeks): 8060 mg/kg/day | TD50 (mouse, strain B6C3F1, males, in feed, site: spleen, lesion: hemangiosarcoma, dosed 104 weeks, study length 104 weeks): 1640 mg/kg/day | TD50 (mouse, strain BALB/c, males, in feed, site: liver, lesion: hepatoma, dosed 60 weeks, study length 104 weeks): 20800 mg/kg/day (inactive) | carcinogen call (mouse, strain BALB/c, males, in feed, site: lung, lesion: one or several types, types not named, dosed 60 weeks, study length 104 weeks): negative (inactive) | carcinogen call (mouse, strain C57BL/6J, males, by gavage, site: liver, lesion: hepatoma, dosed 69 weeks, study length 104 weeks): negative (inactive) | carcinogen call (mouse, strain C57BL/6J, males, by gavage, site: lung, lesion: one or several types, types not named, dosed 69 weeks, study length 104 weeks): negative (inactive) | TD50 (rat, strain Fischer 344, females, in feed, site: adrenal medulla, lesion: pheochromocytoma benign, bilateral + pheochromocytoma, benign, dosed 105 weeks, study length 105 weeks): 4160 mg/kg/day | TD50 (rat, strain Fischer 344, females, in feed, site: adrenal medulla, lesion: pheochromocytoma benign, bilateral + pheochromocytoma, malignant + pheochromocytoma, benign, dosed 105 weeks, study length 105 weeks): 3530 mg/kg/day | TD50 (rat, strain Fischer 344, males, in feed, site: adrenal medulla + kidney, lesion: pheochromocytoma benign, bilateral + pheochromocytoma, benign + tubule adenoma + tubule carcinoma, dosed 104 weeks, study length 104 weeks): 250 mg/kg/day | TD50 (rat, strain Fischer 344, males, in feed, site: adrenal medulla, lesion: pheochromocytoma benign, bilateral + pheochromocytoma, benign, dosed 104 weeks, study length 104 weeks): 517 mg/kg/day | TD50 (rat, strain Fischer 344, males, in feed, site: adrenal medulla, lesion: pheochromocytoma benign, bilateral + pheochromocytoma, malignant + pheochromocytoma malignant, bilateral + pheochromocytoma, b, dosed 104 weeks, study length 104 weeks): 533 mg/kg/day | TD50 (rat, strain Fischer 344, males, in feed, site: any site (literature study), lesion: several types, types named in the paper, dosed 104 weeks, study length 104 weeks): 3540 mg/kg/day | TD50 (rat, strain Fischer 344, males, in feed, site: kidney, lesion: tubule adenoma + tubule carcinoma, dosed 104 weeks, study length 104 weeks): 3220 mg/kg/day and 975 mg/kg/day | TD50 (rat, strain Fischer 344, males, in feed, site: kidney, lesion: tubule adenoma, dosed 104 weeks, study length 104 weeks): 4050 mg/kg/day and 1040 mg/kg/day | TD50 (rat, strain Fischer 344, males, in feed, site: liver, lesion: hepatocellular adenoma + hepatoblastoma + hepatocellular carcinoma, dosed 104 weeks, study length 104 weeks): 118000 mg/kg/day | TD50 (rat, strain Fischer 344, males, in feed, site: thyroid gland, lesion: follicular-cell adenoma, bilateral + follicular-cell adenoma, dosed 104 weeks, study length 104 weeks): 6990 mg/kg/day
